Source: US8217014B2, “Pharmaceutical composition for treatment of blood clotting disorder” (National University Corporation Nagoya University, priority 2006, dated 2012)
Where “and” joins values, the source holds several entries; their conditions need not be identical. Equal values may be shown once.

What was measured:
HCV = assay: Eradication of HCV in HCV-positive patients with hemophilia; assay type: in vivo, human
Experimental: (§1) Ribavirin was orally administered, while the interferon was intravenously administered.
(§2) Interferon α-2b alone was administered to the patients Nos. 1, 2, 3, and 5, prior to the combined administration of this Example 1. In the interferon single dosing period, the interferon was administered to the patients Nos. 1, 2, 3, and 5 every day with the dosage of 6 MU (million units) per day for the first 2 weeks and 3 times per week for the subsequent 22 weeks. […] In the combined administration of this Example 1, Intron A was administered to all the patients every day with the dosage of 6 MU per day for the first 2 weeks and 3 times per week for the subsequent 22 weeks.
The HCV-RNA level was measured at the start of treatment with Amplicor HCV Assay, version 2.0 (Roche Diagnostic Systems).
Eradication of HCV was considered positive when the absence of serum HCVRNA was maintained for 24 weeks after the treatment was completed.

[1] = tested on: HCV-positive patients with hemophilia; assay: Bleeding requiring treatment and use of clotting factors in hemophilia patients (patient logs); assay type: in vivo, human
Experimental: as §1, §2
The use of clotting factors was assessed by patient logs. The clotting factors are generally not used for patients with mild hemophilia. The doses (mean value) of the clotting factors before the combined dosing period of this Example 1, during the combined dosing period, and after the combined dosing period were evaluated. A significant difference at P<0.05 was evaluated by (paired) t-test. Ability to perform activities of daily living was assessed by interview.

coagulation factor X = assay: Coagulation activity of coagulation factor X in the plasma; assay type: in vivo, human; settings: before and after the start of the combined dosing, data not shown
[2] = tested on: coagulation factor VII mRNA in hepatic parenchymal cell line; assay: mRNA expression of coagulation factor VII, real-time quantitative RT-PCR, normal hepatic parenchymal cell line; assay type: cell-based; settings: ribavirin 150 μg/ml in the presence of interferon α-2b 0.75 μg/ml, 48 hours, p<0.01
Experimental: (§3) The mRNA expression levels of the coagulation factors VII and X and prothrombin were measured according to the protocols of real-time quantitative RT-PCR with ABI Prism 7700 Sequence Detection (Perkin Elmer Biosystems, Foster City, Calif., USA) and SYBR Green PCR kit (Perkin Elmer Biosystems). The real-time quantitative RT-PCR was repeated twice. The following […] were used for determination of the mRNA of the genes.

[3] = tested on: coagulation factor VII mRNA in HepG2 cell line; assay: mRNA expression of coagulation factor VII, real-time quantitative RT-PCR, HepG2 cell line; assay type: cell-based, human; settings: ribavirin 150 μg/ml in the presence of interferon α-2b 0.75 μg/ml, 48 hours, p<0.02
Experimental: as §3

[4] = tested on: coagulation factor X mRNA; assay: mRNA expression of coagulation factor X, real-time quantitative RT-PCR, hepatic cell lines; assay type: cell-based; settings: ribavirin 150 μg/ml in the presence of interferon α-2b 0.75 μg/ml; data not shown
Experimental: as §3

prothrombin mRNA = assay: mRNA expression of prothrombin, real-time quantitative RT-PCR, hepatic cell lines; assay type: cell-based; settings: ribavirin 150 μg/ml in the presence of interferon α-2b 0.75 μg/ml; data not shown
Experimental: as §3

[5] = tested on: prothrombin time (PT) in the plasma; assay: Prothrombin time (PT) in the plasma of chronic hepatitis C patients with or without hemophilia; assay type: in vivo, human; settings: for PT Increase Rate: 12 weeks after start versus before; for PT After Therapy: 12 weeks after start
Experimental: Of these patients, 9 patients were with hemophilia and 27 hepatitis patients were without hemophilia. Pegintron was administered to all the patients once a week with the dosage of 1.5 μg/Kg for 48 weeks, whereas Rebetol was simultaneously administered to the 9 hemophilia patients with the dosage of Administration Example 1 (600 mg to 800 mg per day).
The prothrombin time (PT) in the plasma was measured for the patients before the start of the dosing and 12 weeks after the start of the dosing, for the purpose of evaluation of the coagulation activity.

coagulation factor VII = assay: Coagulation activity of coagulation factor VII in the plasma of hemophilia patients
[6] = tested on: HCV-positive patients with hemophilia; assay: Bleeding requiring treatment and use of clotting factors in hemophilia patients (patient logs); assay type: in vivo, human; settings: 47 hemophilia patients with hepatitis C
[7] = 4 weeks after start of combined dosing, 9 patients

## NC(=O)c1ncn([C@@H]2O[C@H](CO)[C@@H](O)[C@H]2O)n1 [ribavirin, 1-β-D-ribofuranosyl-1,2,4-triazole-3-carboxamide]
HCV; oral ribavirin 600-800 mg/day combined with interferon α-2b (Intron A) for 24 weeks, YES = absence of serum HCV-RNA maintained 24 weeks after treatment, per patient (Nos. 1-8)
  Eradication of HCV: YES
[1]; 5 patients with moderate or severe hemophilia, ribavirin + interferon α-2b, standard deviation 1488, 3783 U (SD 2646) in the 6 months before, P<0.03
  monthly mean dosage of the clotting factors in the combined dosing period: 1605 U
[1]; 5 patients with moderate or severe hemophilia, standard deviation 1528, 3783 U (SD 2646) in the 6 months before, P<0.06
  monthly mean dosage of the clotting factors in the 6-month period after the combined dosing period: 1667 U
[1]; monthly mean bleeding frequency treated with clotting factors, after the combined dosing period of ribavirin and interferon α-2b, patient (Nos. 1, 2, 3, 5, 8)
  Times of Bleeding Requiring Treatment, After Therapy: 0.7 and 0.0 and 1.6 and 4.1 and 2.2
[1]; monthly mean bleeding frequency treated with clotting factors, combined dosing period of ribavirin and interferon α-2b, patient (Nos. 1, 2, 3, 5, 8)
  Times of Bleeding Requiring Treatment, During Therapy: 0.2 and 0.8 and 0.7 and 3.0 and 2.6
[1]; patients Nos. 1, 2, 3 and 5, ribavirin + interferon α-2b
  bleeding tendency in the combined dosing period compared with the interferon single dosing period: significantly reduced
Coagulation factor X
  change in coagulation activity of the coagulation factor X: No significant change
[2]
  mRNA induction of the coagulation factor VII: about 4 times
[3]
  mRNA induction of the coagulation factor VII: about 3 times
[4]
  mRNA induction of the coagulation factor X: No significant induction
Prothrombin mRNA
  mRNA induction of prothrombin: No significant induction
[5]; Hemophilia Group n = 9
  PT Increase Rate: 9.4 ± 8.4%
[5]; Hemophilia Group n = 9, Rebetol 600-800 mg/day + Pegintron 1.5 μg/Kg once a week, before therapy 90.0 ± 12.2%
  PT After Therapy: 99.4 ± 14.3%
[5]; Non-Hemophilia Group n = 27
  PT Increase Rate: 5.4 ± 12.6%
[5]; Non-Hemophilia Group n = 27, Pegintron 1.5 μg/Kg once a week, combined administration, before therapy 94.9 ± 14.4%
  PT After Therapy: 100.0 ± 16.8%
Coagulation factor VII; 2 of the 9 patients (one HIV positive, one hepatitis C and hepatitis B virus positive)
  Factor VII coagulation activity increase in the 2 patients without significant increase: 5% and 8%
Coagulation factor VII; [7]
  Factor VII coagulation activity increase, maximum: 28%
  Factor VII coagulation activity increase, minimum: 5%
Coagulation factor VII; 4 weeks after start versus before start of combined dosing, 9 hemophilia patients, p<0.04
  Factor VII Clotting Activity Increase Rate: 15.7 ± 8.8%
Coagulation factor VII; plasma, 4 weeks after start of combined dosing (ribavirin 600-800 mg/day + interferon α-2b), 9 hemophilia patients, before start 86.3 ± 7.6%
  Factor VII Clotting Activity After Start of Therapy: 102.0 ± 10.3%

## interferon α-2b
HCV; interferon α-2b alone, 6 MU per day for 2 weeks then 3 times per week for 22 weeks, patients Nos. 1, 2, 3, 5
  Elimination of HCV in interferon single dosing period: not eliminated
[6]
  reduction of the bleeding tendency by single interferon dosing: No such reduction
